Measured values as given in patent US8975228B2, “Use of boswellic acids for the prophylaxis and/or treatment of damage to and/or inflammation of the islets of Langerhans” (Fraunhofer-Gesellschaft zur Forderung der Angewandten …, priority 2010, dated 2015).

What was measured:
[1] = Blood glucose level in MLD-STZ diabetic mice; format: in vivo, mouse; settings: for STZ-induced increase of the blood glucose level: single substance i.p. daily 10 days, AKBA 15 mg/kg, KBA 7.5 mg/kg
Description: (§1) The use of “multiple low dose streptozotocin” (MOL-STZ diabetes) is an acknowledged animal model for inducing diabetes that occurs frequently in association with insulitis, which corresponds to IDDM in humans. In the pathogenesis, macrophages and T-lymphocytes infiltrate the islets of Langerhans and the B-cells are destroyed. MLD-STZ induced diabetes is very well suited for investigating the anti-diabetic and/or anti-inflammatory effect of drugs on the pancreatic islets. For inducing MLD-STZ diabetes, a mouse is dosed with 40 mg/kg STZ per day intraperitoneally (i.p.) over 5 days. During this time there is no B-cell destruction. Only after 10 to 15 days after the first injection of STZ do signs of inflammation of the islets of Langerhans appear, when T-lymphocytes infiltrate and the B-cells are being destroyed. After about 16 days, the symptoms of the inflammation have disappeared again. Most B-cells have died. As a consequence, insulin secretion is reduced or no longer existent (cf. McEvoy et al. 1984, “Multiple low-dose streptozotocin-induced diabetes in the mouse”, Evidence for stimulation of a cytotoxic cellular immune response against an insulin-producing beta cell line, J Clin Invest, 74:715-22). This animal model of experimental induction of diabetes mellitus essentially corresponds with the pathogenesis of type 1 diabetes in young humans.
For inducing MLD-STZ diabetes, the animals were injected i.p. 40 mg/kg STZ a day for a period of five days. In group A the animals were additionally treated with 150 mg/kg BE i.p. for 5 days (FIG. 5A), in group B for 10 days (FIG. 5B) and in group C for 21 days (FIG. 5C).
The animals were treated for 5 days with STZ as described above. AKBA in solution in Tween 80 was injected i.p. daily for 10 days.

IFN-γ [2] = test: Serum pro-inflammatory cytokines in MLD-STZ diabetic mice; format: in vivo, mouse; settings: 10 days i.p.; BE 150 mg/kg, AKBA 15.0 mg/kg, KBA 7.5 mg/kg
Procedure: (§2) Male mice were injected i.p. 40 mg/kg STZ for 5 days (STZ group, group A). A second group was, in addition to STZ, treated i.p. with 150 mg/kg BE for 10 days (group STZ+BE, group B). A further group (group C) remained untreated. After 10 days blood samples were taken.
(§3) In further tests, 15.0 mg/kg AKBA or 7.5 mg/kg KBA respectively were administered instead of 150 mg/kg BE.
(§4) Ten days after daily i.p. injections of 150 mg/kg of boswellia extract, of 15.0 mg/kg AKBA or 7.5 mg/kg KBA in MLD-STZ animals (40 mg/kg i.p. for 5 days) the presence of cytokines was determined using the commercially available Multianalyte Array TM Kits (mouse-inflammatory cytokines, SA Bioscience Corporation, USA) according to the instructions on usage provided by the manufacturer. The cytokines IL-1A, IL-1B, IL-2, IFN-γ, IL-6 and TNF-α were ascertained.

IL-2 [3] = test: as above; format: in vivo, mouse; settings: 10 days i.p.; BE 150 mg/kg, AKBA 15.0 mg/kg, KBA 7.5 mg/kg
Procedure: as §2, §3, §4

TNF-α [4] = test: as above; format: in vivo, mouse; settings: 10 days i.p.; BE 150 mg/kg, AKBA 15.0 mg/kg, KBA 7.5 mg/kg
Procedure: as §2, §3, §4

IL-1B = test: as above; format: in vivo, mouse; settings: 10 days i.p.; BE 150 mg/kg, AKBA 15.0 mg/kg, KBA 7.5 mg/kg
Procedure: as §2, §3, §4

IL-6 = test: as above; format: in vivo, mouse; settings: 10 days i.p.; BE 150 mg/kg, AKBA 15.0 mg/kg, KBA 7.5 mg/kg
Procedure: as §2, §3, §4

IL-1A = test: as above; format: in vivo, mouse; settings: 10 days i.p.; BE 150 mg/kg, AKBA 15.0 mg/kg, KBA 7.5 mg/kg
Procedure: as §2, §3, §4

islets of Langerhans = test: Histology of pancreas in MLD-STZ diabetic mice (H&E, anti-CD3, anti-activated caspase 3); format: in vivo, mouse; settings: STZ 40 mg/kg i.p. 5 days; 10 days i.p. BE 150 mg/kg, AKBA 15 mg/kg or KBA 7.5 mg/kg; examined day 10
Description: as §1
In order to investigate the effect of an extract containing boswellic acids on the damage and/or inflammation of the islets of Langerhans, a group of mice was dosed with streptozotocin alone and another group of mice was dosed with streptozotocin plus boswellic acid extract (a mixture of boswellic acids with an overall concentration of all boswellic acids of 62%) The aforesaid extract contained 5.51% KBA and 4.96% AKBA. From the 1st to the 10th day, C3M/HeN and Bk +/+ were administered i.p with a dose of 150 mg/kg body weight in male mice of strains bred in the laboratory. […]

[5] = target: Cyclooxygenase 1 (prostaglandin) (Homo sapiens, UniProt P23219); settings: in vitro, technical literature; cited from earlier work
TNF-α [6] = settings: in vitro, technical literature; cited from earlier work
IL-2 [7] = settings: in vitro, technical literature; cited from earlier work
IFN-γ [8] = settings: in vitro, technical literature; cited from earlier work
C3-Convertase = settings: in vitro, technical literature; cited from earlier work
NFK B = settings: in vitro, technical literature; cited from earlier work
IL-1β = settings: in vitro, technical literature; cited from earlier work
Elastase = target: T1, Elastase (Homo sapiens, UniProt P08246); settings: in vitro, technical literature; cited from earlier work
T1 sequence (P08246 30-267): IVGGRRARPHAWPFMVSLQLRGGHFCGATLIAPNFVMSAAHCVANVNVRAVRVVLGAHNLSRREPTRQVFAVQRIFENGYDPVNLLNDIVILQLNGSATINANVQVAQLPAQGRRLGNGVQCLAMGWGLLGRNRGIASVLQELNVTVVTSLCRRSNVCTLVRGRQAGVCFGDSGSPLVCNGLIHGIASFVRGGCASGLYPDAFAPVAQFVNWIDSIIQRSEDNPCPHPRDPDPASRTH

[9] = target: T2, 5-Lipoxygenase (leukotriene) (Homo sapiens, UniProt P09917); settings: in vitro, technical literature; cited from earlier work
T2 sequence (P09917 1-674): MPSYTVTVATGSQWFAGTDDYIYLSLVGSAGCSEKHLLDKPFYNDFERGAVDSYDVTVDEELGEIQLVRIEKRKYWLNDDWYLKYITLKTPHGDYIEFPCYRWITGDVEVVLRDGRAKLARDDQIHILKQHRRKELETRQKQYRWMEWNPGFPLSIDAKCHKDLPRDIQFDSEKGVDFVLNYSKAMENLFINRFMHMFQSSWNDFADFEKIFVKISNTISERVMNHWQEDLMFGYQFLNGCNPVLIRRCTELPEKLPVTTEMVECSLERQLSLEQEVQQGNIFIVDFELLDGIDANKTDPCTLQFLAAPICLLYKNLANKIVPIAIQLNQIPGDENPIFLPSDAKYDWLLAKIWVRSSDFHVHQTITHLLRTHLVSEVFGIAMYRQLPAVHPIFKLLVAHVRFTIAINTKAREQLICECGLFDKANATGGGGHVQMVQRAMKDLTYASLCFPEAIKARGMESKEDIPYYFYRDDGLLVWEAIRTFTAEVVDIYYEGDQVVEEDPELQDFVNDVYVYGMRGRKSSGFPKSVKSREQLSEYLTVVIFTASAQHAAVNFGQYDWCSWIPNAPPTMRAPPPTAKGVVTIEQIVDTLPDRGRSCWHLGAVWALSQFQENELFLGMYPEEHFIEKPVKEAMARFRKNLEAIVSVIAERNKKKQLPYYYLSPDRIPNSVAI

Chain of Cyclooxygenase 1 (prostaglandin) (P23219 24-599): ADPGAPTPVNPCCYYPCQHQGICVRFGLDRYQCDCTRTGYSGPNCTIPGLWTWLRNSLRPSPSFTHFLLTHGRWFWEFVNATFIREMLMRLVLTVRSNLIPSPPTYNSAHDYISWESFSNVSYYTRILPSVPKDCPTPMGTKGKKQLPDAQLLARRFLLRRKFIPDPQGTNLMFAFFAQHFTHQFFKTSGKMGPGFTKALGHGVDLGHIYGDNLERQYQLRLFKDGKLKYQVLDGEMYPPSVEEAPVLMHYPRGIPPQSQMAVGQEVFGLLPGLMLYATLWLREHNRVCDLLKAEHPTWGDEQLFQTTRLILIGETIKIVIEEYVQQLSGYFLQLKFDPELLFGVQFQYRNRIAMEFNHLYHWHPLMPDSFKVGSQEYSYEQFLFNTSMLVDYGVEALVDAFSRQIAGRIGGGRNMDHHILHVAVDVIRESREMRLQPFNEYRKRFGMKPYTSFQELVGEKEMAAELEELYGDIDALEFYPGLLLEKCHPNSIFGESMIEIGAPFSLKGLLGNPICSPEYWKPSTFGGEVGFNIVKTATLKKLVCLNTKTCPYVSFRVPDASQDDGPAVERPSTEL

Structure (SMILES) | STZ-induced increase of the blood glucose level [1] | STZ-induced increase in serum IFN-γ (IFN-γ [2]) | STZ-induced increase in serum IL-2 (IL-2 [3]) | STZ-induced increase in serum TNF-α (TNF-α [4]) | STZ-induced increase in serum IL-1B (IL-1B) | STZ-induced increase in serum IL-6 (IL-6) | STZ-induced increase in serum IL-1A (IL-1A) | Signs of inflammation of the islets of Langerhans (H&E staining, T-lymphocytes by CD3) (islets of Langerhans) | Blood glucose level after administration was discontinued after 10 days ([1]; AKBA 15 mg/kg i.p. 10 days) | Effect on Cyclooxygenase 1 (prostaglandin) [5] | Effect on TNF-α (TNF-α [6]) | Effect on IL-2 (IL-2 [7]) | Effect on IFN-γ (IFN-γ [8]) | Effect on C3-Convertase (C3-Convertase) | Effect on NFK B (NFK B) | Effect on IL-1β (IL-1β) | Effect on Elastase (Elastase) | Effect on 5-Lipoxygenase (leukotriene) [9] | Signs of apoptosis (activated caspase 3) (islets of Langerhans)
C[C@H]1[C@H](C)CC[C@]2(C)CC[C@]3(C)C(=CC(=O)[C@@H]4[C@@]5(C)CC[C@@H](O)[C@](C)(C(=O)O)[C@@H]5CC[C@]43C)[C@H]12 [KBA, 11-keto-β-boswellic acid] | reduced | reduced or prevented | reduced or prevented | reduced or prevented | reduced or prevented | reduced or prevented | reduced or prevented | neither signs of inflammation | – | – | – | – | – | – | – | – | – | – | –
CC(=O)O[C@@H]1CC[C@@]2(C)[C@@H](CC[C@]3(C)[C@@H]2C(=O)C=C2[C@@H]4[C@@H](C)[C@H](C)CC[C@]4(C)CC[C@]23C)[C@@]1(C)C(=O)O [AKBA, acetyl-11-keto-β-boswellic acid] | significant reduction | reduced or prevented | reduced or prevented | reduced or prevented | reduced or prevented | reduced or prevented | reduced or prevented | no signs of inflammation | no significant further increase | Lowered | Lowered | Lowered | Lowered | Lowered | Lowered | Lowered | Lowered | Lowered | only minor signs of apoptosis
